According to publication PMC7591920, “A protein tertiary structure mimetic modulator of the Hippo signalling pathway” (Nature Communications, 2020):
Bridge positions count the residues as written; N and C are the ends. Square brackets hold non-standard residues; d marks the D form. Peptide text beside a SMILES is read from it. Orn = NCCC[C@H](N)C(=O)O

Legend:
mTEAD4 = target: T1, mTEAD4 (Mus musculus, UniProt Q62296); assay: SPR binding to immobilised mTEAD4; settings: mTEAD4 amine-coupled on CM5, multi-cycle, steady-state fit 1:1 model, 10 mM HEPES 150 mM NaCl 0.05% Tween-20 pH 7.4, 0.3% DMSO, 20 °C, Fig. 1 values n = 1 replicate
T1 construct: Mouse TEAD4(210–427) cDNA fused with a 6x His-tag and a 3C protease cleavage site; 6x His-tag; 3C protease cleavage site; made in house; host or cells: E. coli BL21 DE3 RIL(K+)
T1 sequence (Q62296 210-427): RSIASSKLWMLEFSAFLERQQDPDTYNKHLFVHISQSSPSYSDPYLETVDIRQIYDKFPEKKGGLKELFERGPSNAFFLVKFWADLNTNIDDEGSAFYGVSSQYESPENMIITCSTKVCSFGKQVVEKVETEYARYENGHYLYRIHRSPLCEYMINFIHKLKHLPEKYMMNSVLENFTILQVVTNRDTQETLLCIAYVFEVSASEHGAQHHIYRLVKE
Description: Sensor chips Series S CM5 (Research grade) were obtained from GE Healthcare. Prior to use, the sensor chips were equilibrated at room temperature for 15 min to prevent water condensation on the detector side of the sensor chip surface. A running buffer was prepared composed of 10 mM HEPES, 150 mM NaCl, and 0.05% (w/v) Tween-20, pH 7.4, and the system was equilibrated at 20 °C using a flow rate of 30 µL min^−1 after docking of the sensor chip. Ligand binding experiments have been performed applying the concept of multi-cycle kinetics. A contact time of 45 s was selected, followed by a 6-min dissociation phase to allow for complete dissociation of the analyte prior to the next cycle. […] Typically, seven concentrations of the analytes have been examined applying a threefold dilution pattern with 30 µM as top concentration. For the analysis, five running buffer blanks were injected to equilibrate the instrument. […] The carboxyl-dextran surface was activated for 7 min with 0.05 M NHS and 0.2 M EDC, followed by an injection of the proteins in 10 mM MES pH 6.4 at a concentration of 30–50 µg mL^−1. […] This was followed by a deactivation of the residual esters by injecting a solution of 0.5 M ethanolamine pH 8.0 for 7 min before engaging in ligand binding experiments. Reference surfaces were prepared accordingly, omitting the injection of protein over the activated reference surface.

RKO cells [1] = assay: Total drug content in RKO cells by UPLC-MS; settings: 25 µM compound; for Total drug content, Measured Concentration: RIPA total lysis, diluted lysate; for Total drug content, Measured Concentration / Total drug content / Measured Conc: UPLC-MS; for Total drug content, Measured Concentration / Total drug content: n = 2; for Total drug content: total lysis; for Measured Conc / pMol/mg of protein, Mean / pMol/mg, Mean: total drug content; for pMol/mg of protein, Mean / pMol/mg, Mean: mean of 2 replicates
Description: (§1) Peptides were incubated in RKO cells (ATCC, #CRL-2577) as follows: Experiment 1: RKO cells were incubated in 25 µM compound for 90 min and 24 h. Experiment 2: RKO cells were incubated in 25 µM for 30 min or 72 h. Following peptide incubation, the cells were washed twice with PBS, trypsinized and pelleted. The pellets were lysed in RIPA buffer (Perkin Elmer) for total lysis, or CelLytic NuCLEAR Extraction Kit (SIGMA) for subcellular fractionation. Total protein quantification BCA (Pierce) was performed prior to MS analysis to normalize sample data. Total and fractionated cell lysates were analysed by quantitative UPLC-MS utilizing a Waters Xevo TQ-XS (WBA0259) and an Acquity UPLC system from Waters consisting of Sample Manager (M16UFL953M), Acquity PDA (F17UPD457A), Column Oven (E17CMP703G) and Binary Solvent Manager (E17BUR621G). […] Chromatograms of the samples were treated similarly, and by linear regression (1/x) an in-cell concentration was established in the re-suspended cell lysate using the Waters MassLynx TargetLynx^TM product.

RKO cells [2] = assay: Sub-cellular (cytoplasmic, nuclear) peptide concentration in RKO cells by UPLC-MS; settings: for Sub-cellular drug content, Cytoplasm, Measured concentration / Sub-cellular drug content, Cytoplasm, nMol / Sub-cellular drug content, Nuclear, Measured concentration / Sub-cellular drug content, Nuclear, nMol / Sub-cellular drug content, Cytoplasm, pMol.mg-1 / Sub-cellular drug content, Nuclear, pMol.mg-1 / Sub-cellular drug content, Cytoplasm / Sub-cellular drug content, Nuclear: n = 2; for Sub-cellular drug content, Cytoplasm, pMol.mg-1 / Sub-cellular drug content, Nuclear, pMol.mg-1: per mg protein; for Cytoplasmic concentration of peptide: cytoplasmic fraction; for Nuclear concentration of peptide: nuclear fraction; for Cytoplasmic concentration, raw data / Nuclear concentration, raw data: sheet Figure 3c, 25 µM unlabelled peptide; for Intracellular concentration: mass spectrometry; for pMol/mg: Nuclear
Description: as §1

[3] = 90 minutes, dilution factor 10, replicate 1
[4] = 90 minutes, dilution factor 10, replicate 2
[5] = 24 hours, dilution factor 10, replicate 1
[6] = 24 hours, dilution factor 10, replicate 2
[7] = 25 µM compound, 90 minutes, fractionation, UPLC-MS
[8] = 25 µM compound, 24 hours, fractionation, UPLC-MS

Structure (SMILES) | Kd (mTEAD4) | Total drug content, Measured Concentration (RKO cells [1]; 90 minutes) | Total drug content, Measured Concentration (RKO cells [1]; 24 hours) | Total drug content (RKO cells [1]; 24 hours) | Measured Conc (RKO cells [1]; [3]) | Measured Conc (RKO cells [1]; [4]) | pMol/mg of protein, Mean (RKO cells [1]; 90 minutes) | Measured Conc (RKO cells [1]; [5]) | Measured Conc (RKO cells [1]; [6]) | pMol/mg, Mean (RKO cells [1]; 24 hours) | Sub-cellular drug content, Cytoplasm, Measured concentration (RKO cells [2]; [7]) | Sub-cellular drug content, Nuclear, Measured concentration (RKO cells [2]; [7]) | Sub-cellular drug content, Cytoplasm, Measured concentration (RKO cells [2]; [8]) | Sub-cellular drug content, Nuclear, Measured concentration (RKO cells [2]; [8]) | further results
CC[C@H](C)[C@@H]1NC(=O)[C@H](CCC(N)=O)NC(=O)[C@H](CC(C)C)NC(=O)[C@H](Cc2c[nH]c3ccccc23)NC(=O)[C@H]([C@@H](C)O)NC(=O)[C@H](CC(=O)O)NC(=O)CNC(=O)[C@H](CC(C)C)NC(=O)[C@H](C)NC(=O)[C@H](CCCCN)NC(=O)[C@H](C)NC(=O)[C@H](Cc2ccccc2)NC(=O)[C@H](Cc2c[nH]cn2)NC(=O)[C@H](CC(=O)O)NC(=O)[C@@H](NC(=O)[C@H](C)NC(=O)[C@H](CO)NC(C)=O)CCC(=O)NCCCC[C@@H](C(=O)N[C@@H](C)C(=O)N[C@@H](C)C(N)=O)NC1=O [compound 15] (Ac-SAEDHFAKALGDTWLQIKAA-NH2; lactam 3-18) | 1500 ± 370 nM | – | – | – | – | – | – | – | – | – | – | – | – | – | –
CC[C@H](C)[C@H](NC(=O)[C@H](CCC(N)=O)NC(=O)[C@H](CC(C)C)NC(=O)[C@H](Cc1c[nH]c2ccccc12)NC(=O)[C@@H](NC(=O)[C@H](CC(=O)O)NC(=O)CNC(=O)[C@H](CC(C)C)NC(=O)[C@H](C)NC(=O)[C@H](CCCCN)NC(=O)[C@H](C)NC(=O)[C@H](Cc1ccccc1)NC(=O)[C@H](Cc1c[nH]cn1)NC(=O)[C@H](CC(=O)O)NC(=O)[C@H](CC(=O)O)NC(=O)[C@@H](NC(=O)[C@H](CO)NC(C)=O)C(C)C)[C@@H](C)O)C(=O)N[C@@H](CCCCN)C(=O)N[C@@H](C)C(=O)N[C@@H](C)C(N)=O [compound 4] (Ac-SVDDHFAKALGDTWLQIKAA-NH2) | – | 1133.521 ± 133.393 nM | 322.145 ± 33.657 nM | 0.4832 ± 0.05049 nmol | 1266.91 nM | 1000.13 nM | 1685.1 pMol/mg of protein | 355.802 nM | 288.488 nM | 331.25 pMol/mg | < LLOQ | < LLOQ | < LLOQ | < LLOQ | Total drug content (RKO cells [1]; 90 minutes): 1.7 ± 0.2001 nmol; Sub-cellular drug content, Cytoplasm, nMol (RKO cells [2]; [7]): < LLOQ; Sub-cellular drug content, Nuclear, nMol (RKO cells [2]; [7]): < LLOQ; Sub-cellular drug content, Cytoplasm, pMol.mg-1 (RKO cells [2]; [7]): < LLOQ; Sub-cellular drug content, Nuclear, pMol.mg-1 (RKO cells [2]; [7]): < LLOQ; Sub-cellular drug content, Cytoplasm, nMol (RKO cells [2]; [8]): < LLOQ; Sub-cellular drug content, Nuclear, nMol (RKO cells [2]; [8]): < LLOQ; Sub-cellular drug content, Cytoplasm, pMol.mg-1 (RKO cells [2]; [8]): < LLOQ; Sub-cellular drug content, Nuclear, pMol.mg-1 (RKO cells [2]; [8]): < LLOQ; Cytoplasmic concentration of peptide (RKO cells [2]; UPLC-MS, raw data replicate 1): <LLOQ; Cytoplasmic concentration of peptide (RKO cells [2]; UPLC-MS, raw data replicate 2): <LLOQ; Nuclear concentration of peptide (RKO cells [2]; UPLC-MS, raw data replicate 1): <LLOQ; Nuclear concentration of peptide (RKO cells [2]; UPLC-MS, raw data replicate 2): <LLOQ; Cytoplasmic concentration, raw data (RKO cells [2]; UPLC-MS, replicate 1): <LLOQ; Nuclear concentration, raw data (RKO cells [2]; UPLC-MS, replicate 1): <LLOQ; Cytoplasmic concentration, raw data (RKO cells [2]; UPLC-MS, replicate 2): <LLOQ; Nuclear concentration, raw data (RKO cells [2]; UPLC-MS, replicate 2): <LLOQ; Detection in cytoplasmic and nuclear fractions (RKO cells [2]; unlabelled peptide 25 µM, 90 min and 24 h, fractionation, UPLC-MS): not detected in subcellular fractions; Intracellular concentration (RKO cells [2]; unlabelled peptide 25 µM, 90 min incubation, n = 2 biological replicates): < LLOQ; Intracellular concentration (RKO cells [2]; unlabelled peptide 25 µM, 24 hours incubation, N = 2 biological replicates): < LLOQ
CC[C@H](C)[C@@H]1NC(=O)[C@H](CCC(N)=O)NC(=O)[C@H](C)NC(=O)[C@H](Cc2c[nH]c3ccccc23)NC(=O)[C@H]([C@@H](C)O)NC(=O)[C@H](CC(=O)O)NC(=O)CNC(=O)[C@H](CC(C)C)NC(=O)[C@H](C)NC(=O)[C@H](CCCCN)NC(=O)[C@H](C)NC(=O)[C@H](Cc2ccccc2)NC(=O)[C@H](Cc2c[nH]cn2)NC(=O)[C@H](CC(=O)O)NC(=O)[C@@H](NC(=O)[C@@H](NC(=O)[C@H](CO)NC(C)=O)C(C)C)CCC(=O)NCCCC[C@@H](C(=O)N[C@@H](C)C(=O)N[C@@H](C)C(N)=O)NC1=O [compound 24] (Ac-SVEDHFAKALGDTWAQIKAA-NH2; lactam 3-18) | 2000 ± 140 nM | – | – | – | – | – | – | – | – | – | – | – | – | – | –
CC(=O)NCC(=O)N[C@@H](CCCNC(=N)N)C(=O)N[C@@H](CCCCN)C(=O)N[C@@H](CCCCN)C(=O)N[C@@H](CCCNC(=N)N)C(=O)N[C@@H](CCCNC(=N)N)C(=O)N[C@@H](CCC(N)=O)C(=O)N[C@@H](CCCNC(=N)N)C(=O)N[C@@H](CCCNC(=N)N)C(=O)N[C@@H](CCCNC(=N)N)C(=O)N1CCC[C@H]1C(=O)N[C@@H](CCC(N)=O)C(N)=O [Tat, reference compound] | – | 478.752 ± 163.021 nM | 1797.357 ± 596.21 nM | 2.696 ± 0.8943 nmol | 641.773 nM | 315.731 nM | 882.5 pMol/mg of protein | 2393.57 nM | 1201.15 nM | 1647 pMol/mg | 91.363 ± 8.748 nM | 416.901 ± 142.802 nM | 98.42 ± 12.91 nM | 656.841 ± 162.534 nM | Sub-cellular drug content, Cytoplasm (RKO cells [2]; [7]): 0.137 nmol; Sub-cellular drug content, Nuclear (RKO cells [2]; [7]): 0.6254 nmol; Sub-cellular drug content, Cytoplasm (RKO cells [2]; [8]): 0.1476 nmol; Sub-cellular drug content, Nuclear (RKO cells [2]; [8]): 0.9853 nmol; pMol/mg, Mean (RKO cells [2]; Cytoplasm, 25 µM compound, 90 minutes (1.5 hrs), mean of 2 replicates): 209 pMol/mg; pMol/mg (RKO cells [2]; 25 µM compound, 90 minutes (1.5 hrs), replicate 1): 2567 pMol/mg; pMol/mg (RKO cells [2]; 25 µM compound, 90 minutes (1.5 hrs), replicate 2): 4988 pMol/mg; Cytoplasmic concentration of peptide (RKO cells [2]; UPLC-MS, mean of n = 2): 231.15 pMols/mg of protein; Nuclear concentration of peptide (RKO cells [2]; UPLC-MS, mean of n = 2): 3777.5 pMols/mg of protein
CC[C@H](C)[C@@H]1NC(=O)[C@H](CCC(N)=O)NC(=O)[C@H](CC(C)C)NC(=O)[C@H](Cc2c[nH]c3ccccc23)NC(=O)[C@H]([C@@H](C)O)NC(=O)[C@H](CC(=O)O)NC(=O)CNC(=O)[C@H](CC(C)C)NC(=O)[C@H](C)NC(=O)[C@H](CCCCN)NC(=O)[C@H](C)NC(=O)[C@H](Cc2ccccc2)NC(=O)[C@H](Cc2c[nH]cn2)NC(=O)[C@H](CC(=O)O)NC(=O)[C@@H](NC(=O)[C@@H](NC(=O)[C@H](CO)NC(C)=O)C(C)C)CC(=O)NCCC[C@@H](C(=O)N[C@@H](C)C(=O)N[C@@H](C)C(N)=O)NC1=O [4B] (Ac-SVDDHFAKALGDTWLQI[Orn]AA-NH2; lactam 3-18) | 11000 nM | – | – | – | – | – | – | – | – | – | – | – | – | – | –
CC[C@H](C)[C@@H]1NC(=O)[C@H](CCC(N)=O)NC(=O)[C@H](CC(C)C)NC(=O)[C@H](Cc2c[nH]c3ccccc23)NC(=O)[C@H]([C@@H](C)O)NC(=O)[C@H](CC(=O)O)NC(=O)CNC(=O)[C@H](CC(C)C)NC(=O)[C@H](C)NC(=O)[C@H](CCCCN)NC(=O)[C@H](C)NC(=O)[C@H](Cc2ccccc2)NC(=O)[C@H](Cc2c[nH]cn2)NC(=O)[C@H](CC(=O)O)NC(=O)[C@@H](NC(=O)[C@@H](NC(=O)[C@H](CO)NC(C)=O)C(C)C)CC(=O)NCCCC[C@@H](C(=O)N[C@@H](C)C(=O)N[C@@H](C)C(N)=O)NC1=O [4C] (Ac-SVDDHFAKALGDTWLQIKAA-NH2; lactam 3-18) | 3200 nM | – | – | – | – | – | – | – | – | – | – | – | – | – | –
